Test results from US12188040B2, “Method for enhancing gene expression using AAV vector” (priority 2018, dated 2025).
Several values for one entry are separate records, joined by “and”; a condition that tells them apart may be missing. Equal entries are not always repeated. Where two headings read alike, the source gives them in different places.

Key:
[1] = system: HEK293 cells
Description: As the first procedure, 4 methods of the addition were carried out, including adding sucrose immediately (5 minutes or less) after the administration of the AAV vector, and the administration of the AAV vector immediately (5 minutes or less) after, 10 minutes after or 1 hour after adding sucrose to cells.
In the same manner as the above-described procedure, the GFP expression level was measured 3 days later.
In the same manner as the above-described procedures, the GFP expression level was measured 3 days later.
AAV3B-CMV-AcGFP was mixed in advance with sucrose at each of various concentrations, and the mixture was allowed to stand at room temperature for 1 hour followed by administration to cells. […] In order to prevent cell damage due to a buffer at the time of dilution of sucrose, medium replacement was carried out using a sucrose solution having the same concentration that was prepared by the medium 3 hours after the administration.

[2] = system: HepG2 cells; assay: GFP expression in HepG2 cells infected with AAVGT4-CMV-AcGFP in the presence of sucrose; details: Exp 3, AAVGT4-CMV-AcGFP 5×10^8 vg/well, 3 days
Description: (§1) Three types of AAV vectors (AAV3B, yf2AAV9 and AAVGT4) were used.
(§2) To the culture cells of (b) above, 6×10^7 to 5×10^8 vg/well of AAV3B-CMV-AcGFP expressing GFP described in Item (a) above was added, or 2×10^9 vg/well of yf2AAV9-CMV-AcGFP was added, and then the cells were cultured for 3 to 6 days.
(§3) The fluorescence intensity of GFP was measured using a plate reader (BioTek Japan) and comparison thereof was made. Further, the images of typical view fields were taken using the fluorescence microscope (Olympus IX83).
(§4) On a 96 well Optical bottom plate, 5×10^4 cells/well of HepG2 cells were seeded, and 5×10^8 vg/well of AAVGT4-CMV-AcGFP or 5×10^8 vg/well of AAV3B-CMV-AcGFP was added to the medium on the next day. […] To a sucrose (−) control, the medium in the same amount as that of the sucrose solution was added. After cell cultivation for 3 days under 5% CO2 at 37° C. in an incubator, the fluorescence intensity of GFP was measured using the plate reader and comparison thereof was made.

[3] = system: HepG2 cells; assay: GFP expression in HepG2 cells infected with AAV3B-CMV-AcGFP in the presence of sucrose; details: Exp 3, AAV3B-CMV-AcGFP 5×10^8 vg/well, 3 days
Description: as §1, §2, §3, §4

[4] = system: HEK293 cells; assay: GFP expression in HEK293 cells infected with yf2AAV9-CMV-AcGFP in the presence of sucrose; details: Exp 1, yf2AAV9-CMV-AcGFP 2×10^9 vg/well, 3 days
Description: as §2, §3
On a 96 well Optical bottom plate (ThermoFisher), 5×10^4 cells/well of HEK293 cells were seeded, and the next day, either 2×10^8 vg/well of AAV3B-CMV-AcGFP or 2×10^9 vg/well of yf2AAV9-CMV-AcGFP was added thereto. […] To a sucrose (−) control, the same amount of the medium as that of the sucrose solution was added. After cell cultivation for 3 days under 5% CO2 at 37° C. in an incubator, the fluorescence intensity of GFP was measured using the plate reader (BioTek Japan) and comparison thereof was made (FIG. 1A). Further, the images of typical view fields were taken using the fluorescence microscope (Olympus IX83) (FIG. 1B).

[5] = Exp 2, AAV3B 6×10^7 vg/well, iso-osmotic additives: sucrose 125.0, glucose 132.3, mannitol 132.3, NaCl 71.5 mM, 3 days
[6] = Exp 6, sucrose 187 mM, data not shown

OC[C@H]1O[C@@](CO)(O[C@H]2O[C@H](CO)[C@@H](O)[C@H](O)[C@H]2O)[C@@H](O)[C@@H]1O [Sucrose, sucrose]
GFP fluorescence intensity ([1]; Exp 1, AAV3B-CMV-AcGFP 2×10^8 vg/well, sucrose 125 mM final, 3 days): 9257.45 | (+)/(−) GFP expression increase ([1]; Exp 1, AAV3B-CMV-AcGFP 2×10^8 vg/well, sucrose 125 mM vs no sucrose, 3 days): 15.4 times | GFP intensity [1, 5]: 1844.8 | Relativeness (vs No Additive) [1, 5]: 11 times and 11.2 times | Fluorescence Intensity ([1]; Exp 4A, AAV3B 1×10^8 vg/well, AAV 10 min after sucrose 125 mM, 3 days): 2580.3 | Fluorescence Intensity ([1]; Exp 4A, AAV3B 1×10^8 vg/well, AAV 1 hr after sucrose 125 mM, 3 days): 3047 | Fluorescence Intensity ([1]; Exp 4A, AAV3B 1×10^8 vg/well, AAV immediately after sucrose 125 mM, 3 days): 2356.2 | Fluorescence Intensity ([1]; Exp 4A, AAV3B 1×10^8 vg/well, sucrose 125 mM added immediately after AAV, 3 days): 2500.8 | Relativeness (vs Sucrose(−)) ([1]; Exp 4A, AAV 10 min after sucrose 125 mM, 3 days): 10.5 | Relativeness (vs Sucrose(−)) ([1]; Exp 4A, AAV 1 hr after sucrose 125 mM, 3 days): 12.4 | Relativeness (vs Sucrose(−)) ([1]; Exp 4A, AAV immediately after sucrose 125 mM, 3 days): 9.6 | Relativeness (vs Sucrose(−)) ([1]; Exp 4A, sucrose 125 mM added immediately after AAV, 3 days): 10.2 | Increase of expression ([1]; Exp 4A, sucrose 125 mM, any of the adding methods, 3 days): about 10 times | Fluorescence Intensity ([1]; Exp 4B, AAV3B 1×10^8 vg/well premixed with sucrose (125 mM final), administered 1 hr after mixing, 3 days): 3049.8 | Fluorescence Intensity ([1]; Exp 4B, AAV3B 1×10^8 vg/well premixed with sucrose (125 mM final), administered immediately after mixing, 3 days): 3002.5 | Relativeness (vs (−) => (−)) ([1]; Exp 4C, (+) => (+): sucrose from immediately after AAV, 3 days): 4.9 times | Relativeness (vs (−) => (−)) ([1]; Exp 4C, (−) => (+): sucrose added 3 hours later, 3 days): 2.8 times | Fluorescence Intensity ([1]; Exp 4C, AAV3B 1×10^8 vg/well, (+) => (+): sucrose 125 mM from immediately after AAV, 3 days): 534.5 | Fluorescence Intensity ([1]; Exp 4C, AAV3B 1×10^8 vg/well, (−) => (+): sucrose 125 mM only from medium replacement 3 h after AAV, 3 days): 309.8 | Optimum concentration for expression enhancement ([1]; Exp 6, after 3 days): 150 mM | Fluorescence Intensity ([1]; Exp 6, sucrose 80 mM, AAV3B 1×10^8 vg/well premixed 1 h, 3 days): 1026.0 | Relativeness (vs 0 mM) ([1]; Exp 6, sucrose 90 mM, 3 days): 6.4 | Fluorescence Intensity ([1]; Exp 6, sucrose 90 mM, AAV3B 1×10^8 vg/well premixed 1 h, 3 days): 1230.5 | Relativeness (vs 0 mM) ([1]; Exp 6, sucrose 100 mM, 3 days): 8.1 | Fluorescence Intensity ([1]; Exp 6, sucrose 100 mM, AAV3B 1×10^8 vg/well premixed 1 h, 3 days): 1568.3 | Relativeness (vs 0 mM) ([1]; Exp 6, sucrose 105 mM, 3 days): 9.2 | Fluorescence Intensity ([1]; Exp 6, sucrose 105 mM, AAV3B 1×10^8 vg/well premixed 1 h, 3 days): 1769.3 | Relativeness (vs 0 mM) ([1]; Exp 6, sucrose 110 mM, 3 days): 10.1 | Fluorescence Intensity ([1]; Exp 6, sucrose 110 mM, AAV3B 1×10^8 vg/well premixed 1 h, 3 days): 1952.3 | Relativeness (vs 0 mM) ([1]; Exp 6, sucrose 115 mM, 3 days): 12.2 | Fluorescence Intensity ([1]; Exp 6, sucrose 115 mM, AAV3B 1×10^8 vg/well premixed 1 h, 3 days): 2351.3 | Relativeness (vs 0 mM) ([1]; Exp 6, sucrose 120 mM, 3 days): 15.3 | Fluorescence Intensity ([1]; Exp 6, sucrose 120 mM, AAV3B 1×10^8 vg/well premixed 1 h, 3 days): 2941.0 | Relativeness (vs 0 mM) ([1]; Exp 6, sucrose 125 mM, 3 days): 18.8 | Fluorescence Intensity ([1]; Exp 6, sucrose 125 mM, AAV3B 1×10^8 vg/well premixed 1 h, 3 days): 3626.8 | Relativeness (vs 0 mM) ([1]; Exp 6, sucrose 130 mM, 3 days): 21.1 | Fluorescence Intensity ([1]; Exp 6, sucrose 130 mM, AAV3B 1×10^8 vg/well premixed 1 h, 3 days): 4069.0 | Relativeness (vs 0 mM) ([1]; Exp 6, sucrose 135 mM, 3 days): 25.0 | Fluorescence Intensity ([1]; Exp 6, sucrose 135 mM, AAV3B 1×10^8 vg/well premixed 1 h, 3 days): 4813.3 | Relativeness (vs 0 mM) ([1]; Exp 6, sucrose 140 mM, 3 days): 29.2 | Fluorescence Intensity ([1]; Exp 6, sucrose 140 mM, AAV3B 1×10^8 vg/well premixed 1 h, 3 days): 5620.5 | Fluorescence Intensity ([1]; Exp 6, sucrose 145 mM, AAV3B 1×10^8 vg/well premixed 1 h, 3 days): 5763.8 | Fluorescence Intensity ([1]; Exp 6, sucrose 150 mM, AAV3B 1×10^8 vg/well premixed 1 h, 3 days): 6411.8 | Fluorescence Intensity ([1]; Exp 6, sucrose 160 mM, AAV3B 1×10^8 vg/well premixed 1 h, 3 days): 5922.5 | Cell damage [1, 6]: damaged and detached | Decrease of GFP intensity [1, 6]: about 20% | Fluorescence Intensity ([1]; Exp 8, disaccharide 100 mM in medium, AAV3B 1×10^8 vg/well, Day 3): 1312.7 | Relativeness (vs No Sugar) ([1]; Exp 8, disaccharide 100 mM, Day 3): 2.2 | Fluorescence Intensity ([1]; Exp 8, disaccharide 125 mM in medium, AAV3B 1×10^8 vg/well, Day 3): 1760.5 | Relativeness (vs No Sugar) ([1]; Exp 8, disaccharide 125 mM, Day 3): 2.9 | Fluorescence Intensity ([1]; Exp 8, disaccharide 150 mM in medium, AAV3B 1×10^8 vg/well, Day 3): 2979.5 | Fluorescence Intensity ([1]; Exp 8, disaccharide 150 mM, AAV3B 1×10^8 vg/well, Day 1): 434.5 | Fluorescence Intensity ([1]; Exp 8, disaccharide 150 mM, AAV3B 1×10^8 vg/well, Day 2): 1657.3 | Fluorescence Intensity ([1]; Exp 8, disaccharide 150 mM, AAV3B 1×10^8 vg/well, Day 6): 7908.0 | Relativeness (vs No Sugar) ([1]; Exp 8, disaccharide 150 mM, Day 3): 4.9 | (+)/(−) GFP expression increase ([2]; sucrose 125 mM vs none): 19.1 times | GFP fluorescence intensity ([2]; sucrose 125 mM): 579.8 | (+)/(−) GFP expression increase ([3]; sucrose 125 mM vs none): 16.1 times | GFP fluorescence intensity ([3]; sucrose 125 mM): 970.8 | GFP fluorescence intensity ([4]; sucrose 125 mM final): 321.4 | (+)/(−) GFP expression increase ([4]; sucrose 125 mM vs no sucrose): 19.6 times
